These results are taken from patent US11912707B2 (priority 2016, dated 2024).

The target of data set [1] is T1, human delta-opioid receptor (DOR) (Homo sapiens, UniProt P41143).
T1 construct: expressed in transfected cells; host or cells: HEK-293T
Briefly: BRET assay measuring G protein activation, antagonist competition vs DPDPE, human DOR. The data set is classed as cell-based. The settings on record: for Extent of antagonism at Human DOR: competing agonist DPDPE (50 nM). The protocol:
(§1) Human MOR, KOR, or DOR cDNA was transfected alongside GαoB with RLuc8 inserted at position 91 (GαoB-RLuc8), Gβ1 (β1), and Gγ2 fused to the full-length mVenus at its N terminus (mVenus-γ2) (2.5 μg MOR/DOR/KOR, 0.125 μg GαoB-RLuc8, 6.25 μg β1; 6.25 μg mVenus-γ2) into HEK-293T cells (5×10^6 cells/plate) in 10-cm dishes using PEI (Polysciences Inc.; Warrington, PA) in a 1:1 ratio diluted in Opti-MEM (Life Technologies Corp.; Grand Island, NY) to assay for G protein activation as described previously.^2,3 Cells were maintained in Dulbecco's Modified Eagle Medium (high glucose #11965; Life Technologies) supplemented with 10% FBS (Premium Select, Atlanta Biologicals; Atlanta, GA) and 100 U/mL penicillin and 100 μg/mL streptomycin (#15140, Life Technologies). After 24 hours the media was changed, and the experiment was performed 24 hours later (48 hours after transfection).
(§2) Transfected cells were dissociated and resuspended in phosphate-buffered saline (PBS). Approximately 200,000 cells/well were added to a black-framed, white well 96-well plate (#60050; Perkin Elmer; Waltham, MA). The microplate was centrifuged and the cells were resuspended in phosphate-buffered saline (PBS). For agonist experiments, after 5 minutes, 5 μM of the luciferase substrate coelenterazine H was added to each well. After 5 minutes, ligands were added and the BRET signal was measured at 5 minutes on a PHERAstar FS plate reader. For antagonist competition experiments, cells were preincubated with the antagonist at varying concentrations for 30 minutes. Coelenterazine H (5 μM) was then added to each well for 5 minutes. […] The BRET signal was quantified by calculating the ratio of the light emitted by the energy acceptor, mVenus (510-540 nm), over the light emitted by the energy donor, RLuc8 (485 nm). This drug-induced BRET signal was normalized using the Emax of [D-Ala2, N-Me-Phe4, Gly5-ol]-enkephalin (DAMGO), U-50,488, or [D-Pen(2,5)]enkephalin (DPDPE) as the maximal response at MOR, KOR, and DOR respectively. Dose response curves were fit using a three-parameter logistic equation in GraphPad Prism 6.

For data set [2], the target named is T2, human kappa-opioid receptor (KOR) (Homo sapiens, UniProt P41145).
T2 construct: expressed in transfected cells; host or cells: HEK-293T
Briefly: BRET assay measuring G protein activation, antagonist competition vs U-50,488, human KOR. It counts as cell-based. To be noted: for Inhibition of the agonist activity of U-50,488 at human KOR: concentration of agonist = 320 nM, FIG. 1. On the procedure:
as §1, §2
(In general: In BRET a luciferase serves as donor, and the signal depends on an acceptor being close.)

Data set [3] addresses T3, human mu-opioid receptor (MOR) (Homo sapiens, UniProt P35372).
T3 construct: expressed in transfected cells; host or cells: HEK-293T
The settings on record: Kruegel, A. C. et al. 2016; cited from earlier work.

Data set [4] deals with MOR. To be noted: Takayama 2002; Matsumoto 2004; cited from earlier work.
Data set [5] deals with T3, human mu-opioid receptor (MOR). Nature of the data set: BRET assay measuring G protein activation, agonist mode, human MOR. The data set is classed as cell-based. The protocol: as §1, §2
Data set [6] concerns the target MOR (Homo sapiens, UniProt P35372). The settings on record: Kruegel, A. C. et al. 2016; cited from earlier work.
The target in data set [7] is T2, human kappa-opioid receptor (KOR). The settings on record: Kruegel, A. C. et al. 2016; cited from earlier work.
Data set [8] in a line: Stability in human liver microsomes. The data set is classed as in vitro ADME. To be noted: pH 7.4, 2 μM test compound, 0.42 mg/mL microsomal protein, 37° C., NADPH, read-out: t1/2 in human liver microsomes. The protocol:
Microsomal incubations were carried out in 96-well plates in 5 aliquots of 40 μL each (one for each time point). Liver microsomal incubation medium contained PBS (100 mM, pH 7.4), MgCl2 (3.3 mM), NADPH (3 mM), glucose-6 phosphate (5.3 mM), and glucose-6-phosphate dehydrogenase (0.67 units/ml) with 0.42 mg of liver microsomal protein per mL. Control incubations were performed replacing the NADPH-cofactor system with PBS. Test compound (2 μM, final solvent concentration 1.6%) was incubated with microsomes at 37° C., shaking at 100 rpm. Incubations were performed in duplicates. Five time points over 40 minutes were analyzed. The reactions were stopped by adding 12 volumes of 90% acetonitrile-water to incubation aliquots, followed by protein sedimentation by centrifuging at 5500 rpm for 3 minutes. Supernatants were analyzed for remaining test compound using an HPLC system coupled with a tandem mass spectrometer.
On the technique in general: Liver microsomes are vesicles of endoplasmic reticulum, rich in cytochrome P450 enzymes.

Setting [9] is: read-out: Antagonist IC50, Human DOR.
Where [10] appears, read: inhibition of reference agonist U-50,488 at 5x its EC50 (320 nM), read-out: Antagonist IC50, Human KOR.

Molecules are shown by their SMILES. Where two headings read alike, the source gives them in different places.

Regarding `CC[C@@H]1CN2CCc3c([nH]c4cccc(OC)c34)[C@@H]2C[C@@H]1/C(=C\OC)C(=O)OC` [mitragynine, Mitragynine], the “Extent of antagonism at Human DOR” value in data set [1] is “partial”. The IC50 was greater than 50 µM in data set [1] (setting [9]) and 8.5 µM in data set [2] (setting [10]). In addition, in data set [2] (Schild analysis, read-out: Schild pA2 (an estimate of Ki), Human KOR (converted)), the Ki is 1.4 µM. The “Inhibition of the agonist activity of U-50,488 at human KOR” value (“Inhibition” below) in data set [2] is given as “fully inhibit”. Further, the “Type of activity at MOR” value in data set [3] is “partial MOR agonists”. Further, the “binding affinities for the MOR” value with MOR [4] is recorded as “nanomolar”. Also, the “Emax, Human MOR” value in data set [5] (normalized to Emax of DAMGO) stood at 34%. Further, the “beta-arrestin recruitment at MOR” value at MOR [6] is recorded as “failing to recruit beta-arrestin”. For the same molecule, the “Type of activity at KOR” value in data set [7] is “competitive kappa-opioid receptor (KOR) antagonists”. The half-life at 2 μM in data set [8] stood at 0.447 h.
Take `CC[C@@H]1CN2CC[C@]3(Nc4cccc(OC)c4C3=O)[C@@H]2C[C@@H]1/C(=C\OC)C(=O)OC` [mitragynine pseudoindoxyl, methyl (E)-2-((2S,6′S,7′S,8a′S)-6′-ethyl-4-methoxy-3-oxo-2′,3′,6′,7′,8′,8a′-hexahydro-5′H-spiro[indoline-2,1′-indolizin]-7′-yl)-3-methoxyacrylate]: the results for the IC50 in data set [1] and in data set [2] were 0.609 µM and 4.8 µM, respectively. Moreover, the “Inhibition” value in data set [2] is “fully inhibit”. For the same molecule, in data set [3], the “Type of activity at MOR” value was “partial MOR agonists”. Further, a half-maximal response in data set [5] (EC50) required 0.0145 µM. Further, the Emax in data set [5] (normalized to Emax of DAMGO) came out at 52%. The “beta-arrestin recruitment at MOR” value at MOR [6] is listed as “failing to recruit beta-arrestin”. Moreover, the “Type of activity at KOR” value in data set [7] is reported as “competitive kappa-opioid receptor (KOR) antagonists”.
For the molecule `CC[C@@H]1CN2CCc3c([nH]c4cccc(OC)c34)[C@@H]2C[C@@H]1/C(=C/OC)C(=O)OC` [(Z)-mitragynine, methyl (Z)-2-((2S,3S,12bS)-3-ethyl-8-methoxy-1,2,3,4,6,7,12,12b-octahydroindolo[2,3-a]quinolizin-2-yl)-3-methoxyacrylate], the “Extent of antagonism at Human DOR” value in data set [1] is “partial”. Besides, the results for the IC50 in data set [1] (setting [9]) and in data set [2] (setting [10]) were greater than 100 µM and 42 µM, respectively.
As to `CC[C@@H]1CN2CC[C@@]3(O)C(=Nc4cccc(OC)c43)[C@@H]2C[C@@H]1/C(=C\OC)C(=O)OC` [7-hydroxymitragynine, 7-Hydroxymitragynine], the IC50 in data set [1] was found to be 15.6 µM. In data set [2], the IC50 was 7.9 µM, the Ki was 0.49 µM and the “Inhibition” value was “fully inhibit”. For the same molecule, the “Type of activity at MOR” value in data set [3] is “partial MOR agonists”. Besides, the “binding affinities for the MOR” value with MOR [4] is “nanomolar”. The molecule further displayed an Emax in data set [5] (normalized to Emax of DAMGO) of 60%. Moreover, the “beta-arrestin recruitment at MOR” value at MOR [6] is “failing to recruit beta-arrestin”. Moreover, the “Type of activity at KOR” value in data set [7] is given as “competitive kappa-opioid receptor (KOR) antagonists”. Also, the half-life at 2 μM in data set [8] worked out at 4.38 h.
Consider `[2H]CO/C=C(/C(=O)OC([2H])([2H])[2H])[C@H]1C[C@H]2C3=Nc4cccc(OC([2H])([2H])[2H])c4[C@@]3(O)CCN2C[C@H]1CC` [Compound 19, Methyl-d3 (E)-2-((2S,3S,7aS,12bS)-3-ethyl-7a-hydroxy-8-(methoxy-d3)-1,2,3,4,6,7,7a,12b-octahydroindolo[2,3-a]quinolizin-2-yl)-3-(methoxy-d)acrylate], for which the half-life at 2 μM in data set [8] was 6.57 h.
Consider `CC[C@@H]1CN2CC[C@@]3(O)C(=Nc4cccc(OC)c43)[C@@H]2C[C@@H]1/C(=C/OC)C(=O)OC` [(Z)-7-hydroxymitragynine, methyl (Z)-2-((2S,3S,7aS,12bS)-3-ethyl-7a-hydroxy-8-methoxy-1,2,3,4,6,7,7a,12b-octahydroindolo[2,3-a]quinolizin-2-yl)-3-methoxyacrylate], for which the IC50 in data set [1] and in data set [2] was greater than 50 µM each time. Besides, the Emax in data set [5] (normalized to Emax of DAMGO) was determined as 64%.
For `[2H]C([2H])([2H])O/C=C(/C(=O)OC([2H])([2H])[2H])[C@H]1C[C@H]2c3[nH]c4cccc(OC([2H])([2H])[2H])c4c3CCN2C[C@H]1CC` [Compound 18, Methyl-d3 (E)-2-((2S,3S,12bS)-3-ethyl-8-(methoxy-d3)-1,2,3,4,6,7,12,12b-octahydroindolo[2,3-a]quinolizin-2-yl)-3-(methoxy-d3)acrylate], in data set [8], the half-life at 2 μM amounted to 0.585 h.

The IC50 is the concentration that gives 50% inhibition. The Ki is a measure of affinity in units of concentration, obtained from inhibition or displacement. In general, EC50 refers to the concentration giving half of the maximal effect. Broadly, the Emax is the greatest response seen or fitted, relative to the assay's reference.
